Legend:
[1] = tested on: lung tumor LLC cells; assay: LLC cell viability (CellTiter-Fluor) as readout of proliferation; assay type: cell-based, murine; details: 5 mM ALA at day 0, no medium refresh
[2] = tested on: Caco2 cells; assay: Intracellular 5-ALA levels and 13C-isotope labelling (LC-MS) in Caco2 cells; assay type: cell-based, human
Description: (A) Heme content in Caco2 cells treated with 5 mM 5-ALA (black bars and white bars) or with 5 mM 5-ALA+0.5 mM SA (light grey outlined bars) for the indicated time points. […] Values are expressed as relative fluorescence intensity. Data represent mean±SEM, n=2. For statistical analyses, a two-way analysis of variance was used, followed by the Bonferroni correction for multiple group comparisons; **=p<0.01, ***=p<0.001. 5-ALA, 5-aminolevulinic acid; SA, succinylacetone. (B) Intracellular 5-ALA levels. […] Values are expressed as peak area/μg proteins. Data represent mean±SEM of n=4 wells pooled from two independent experiments. For statistical analyses, an unpaired Student's t-test was used; **=p<0.01. 5-ALA, 5-aminolevulinic acid. (C, D) Accumulation of ^13C2-5-ALA in cells incubated with U-^13C-glucose (C) or of ^13C3-5-ALA in cells incubated with U-^13C-glutamine (D) for the indicated time. […] Values are expressed as peak area/μg proteins. Data represent mean±SEM of n=4 wells pooled from two independent experiments. For statistical analyses, a two-way analysis of variance was used, followed by the Bonferroni correction for multiple group comparisons; ***p<0.001. […] Transcript abundance, normalized to beta-actin mRNA expression, is expressed as a fold increase over a calibrator sample. […] Band intensities were measured by densitometry and normalized to vinculin expression. […]

[3] = tested on: Caco2 cells; assay: TCA cycle flux in Caco2 cells; assay type: cell-based, human; details: FLVCR1a-silenced vs scramble shRNA Caco2 cells
Text: TCA cycle flux is reported in the centre of the figure and expressed as pmol CO2/h/mg protein. Data represent mean±SEM, n=3. For statistical analyses, an unpaired Student's t-test was used. **=p<0.01. Moreover, TCA cycle enzymes activities are reported in boxes and expressed as mU/mg mitochondrial proteins. Data represent mean±SEM, n=3. For statistical analyses, an unpaired Student's t-test was used; *=p<0.05, ***=p<0.001. […] Results are expressed as pmol CO2/h/mg protein. Data represent mean±SEM, n=3. For statistical analyses, an unpaired Student's t-test was used; *=p<0.05, **=p<0.01.
(A) TCA cycle flux in Caco2 cells expressing a scramble shRNA untreated or treated with 25 μM hemin for 2 hours. Moreover, the TCA cycle flux of untreated FLVCR1a-silenced Caco2 cells is reported for comparison. Results are expressed as pmol CO2/h/mg protein. Data represent mean±SEM, n=3. […] Results are expressed as pmol CO2/h/mg protein. […] Results are expressed as pmol CO2/h/mg protein. […]
The glucose flux through TCA cycle was measured by radiolabeling cells with 2 μCi/ml [6-^14C]-glucose (55 mCi/mmol; PerkinElmer, Waltham, MA, USA, catalog n° NEC045X). […] The amount of glucose transformed into CO2 through the TCA cycle was calculated as described (Riganti et al., 2004) and expressed as pmoles CO2/h/mg cell proteins.

| Compound | cell proliferation (cell viability) [1] | Intracellular 5-ALA levels ([2]; FLVCR1a-silenced vs scramble shRNA Caco2 cells) | incorporation of labelled carbons in 5-ALA ([2]; U-13C-glucose or U-13C-glutamine, time course, FLVCR1a-silenced vs scramble) | total flux of the TCA cycle [3] |
| --- | --- | --- | --- | --- |
| Cl.NCC(=O)CCC(=O)O [5-ALA, 5-Aminolevulinic acid hydrochloride] | significantly reduced | – | – | – |
| FLVCR1a shRNA: shRNA specifically down-regulating FLVCR1a without targeting FLVCR1b; pLKO.1 lentiviral clone TRCN0000059599, antisense SEQ ID No.: 2 (antisense TTGCTAATGATGCTGTACTGG; sense CCAGTACAGCATCATTAGCAA) | – | lower amount of 5-ALA | reduced incorporation of labelled carbons in 5-ALA | significantly up-regulated |
